Laboratory results reported in ChEMBL document CHEMBL1152823, “Identification of novel epoxide inhibitors of hepatitis C virus replication using a high-throughput screen” (Antimicrob Agents Chemother, 2007).

What was measured:
Hepatitis C virus [1] = experiment: Antiviral activity against HCV replication in human HuH7 cells expressing Rep-Feo replicon by luciferase assay; format: functional, organism-based, Hepacivirus hominis; details: Huh-7
[2] = Cytotoxicity against human HuH7 cells; format: cell-based, Huh-7
Hepatitis C virus [3] = experiment: Antiviral activity against HCV JFH1 replication in human Huh7.5.1 cells at 5 uM after 48 hrs by quantitative RT-PCR analysis relative to 1 ng/ml interferon; format: functional, Hepacivirus hominis, JFH-1, Huh-7
Hepatitis C virus [4] = experiment: Antiviral activity against HCV JFH1 replication in human Huh7.5.1 cells at 1 uM after 48 hrs by quantitative RT-PCR analysis relative to 1 ng/ml interferon; format: functional, Hepacivirus hominis, JFH-1, Huh-7

| SMILES | EC50 (Hepatitis C virus [1]) | CC50 [2] | Activity (Hepatitis C virus [3]) | Activity (Hepatitis C virus [4]) |
| --- | --- | --- | --- | --- |
| O=C1C2C=C(Br)C(CC2OCCCCCCO)[C@]12CO2 (stereo partly specified) | 19.6 µM | > 50 µM |  |  |
| COc1ccc(O[C@H]2C=C[C@@H](c3ccccc3)O[C@@H]2CO/N=C2/[C@H]3CCn4c(=O)n(-c5ccccc5)c(=O)n4[C@H]3[C@H](O)[C@@H]3O[C@H]23)cc1 | 2.6 µM | 18 µM |  |  |
| O=C1C2C=C(I)C(CC2OCCCCO)[C@]12CO2 (stereo partly specified) | 25.7 µM | > 50 µM |  |  |
| Cc1cc(C)c(-c2cc([C@H](C)O/N=C3\[C@H]4CCn5c(=O)n(-c6ccccc6)c(=O)n5C4[C@H](O)[C@@H]4O[C@H]34)on2)c(C)c1 (stereo partly specified) | < 0.5 µM | 19.5 µM | 48.4% | 45.1% |
| O=C1C2C=C(I)C(CC2OCCCCCCO)[C@]12CO2 (stereo partly specified) | 26.7 µM | > 50 µM |  |  |
| C=CC[C@@H]1C=C[C@H](O/N=C2\[C@H]3CCn4c(=O)n(-c5ccccc5)c(=O)n4[C@H]3[C@H](O)[C@@H]3O[C@H]23)[C@@H](CO)O1 | 7.75 µM | 35.3 µM |  |  |
| C[C@@H](O/N=C1\[C@H]2CCn3c(=O)n(-c4ccccc4)c(=O)n3C2[C@H](O)[C@@H]2O[C@H]12)c1cn([C@H](CO)Cc2ccccc2)nn1 (stereo partly specified) | 7.6 µM | > 50 µM |  |  |
| CC(=O)OC[C@H]1O[C@@H](O/N=C2/[C@H]3CCn4c(=O)n(-c5ccccc5)c(=O)n4C3[C@H](O)[C@@H]3O[C@H]23)[C@H](OC(C)=O)[C@@H](OC(C)=O)[C@@H]1OC(C)=O (stereo partly specified) | 42.9 µM | > 50 µM |  |  |
| O=c1n(-c2ccccc2)c(=O)n2n1CC[C@@H]1/C(=N\OC[C@@H](O)COCc3ccco3)[C@H]3O[C@H]3[C@@H](O)C12 (stereo partly specified) | 7 µM | > 50 µM |  |  |
| COc1ccc(O[C@H]2C=C[C@@H](c3ccccc3)O[C@@H]2CO/N=C(\C)CCN2CCc3nc(-c4ccccc4)c(-c4ccccc4)cc3C2)cc1 | 21.1 µM | > 50 µM |  |  |
| CC(=O)OC[C@H]1OC(CCO/N=C2/[C@H]3CCn4c(=O)n(-c5ccccc5)c(=O)n4[C@H]3[C@H](O)[C@@H]3O[C@H]23)C=C[C@@H]1OC(C)=O (stereo partly specified) | 0.7 µM | 9 µM |  |  |
| CCCNC(=O)OC[C@H]1O[C@H](CCO/N=C(\C)CCN2CCc3nc(-c4ccccc4)c(-c4ccccc4)cc3C2)C=C[C@@H]1Oc1ccc(OC)cc1 | 14.2 µM | > 50 µM |  |  |
| O=C1C2C=C(Br)C(CC2c2ccccc2)[C@]12CO2 (stereo partly specified) | 19.7 µM | > 50 µM |  |  |
| O=C1C2C=C(I)C(CC2OCCCCO)[C@]12CCCO2 (stereo partly specified) | > 30 µM | > 50 µM |  |  |
| C#CCCCO/N=C1/[C@H]2CCN3C(=O)N([C@@H](CC)c4ccccc4)CN3[C@H]2[C@H](O)[C@@H]2O[C@H]12 | 3.8 µM | > 50 µM |  |  |
| C[C@H](O/N=C1\[C@H]2CCn3c(=O)n(-c4ccccc4)c(=O)n3C2[C@H](O)[C@@H]2O[C@H]12)c1cn([C@H](CO)Cc2ccccc2)nn1 (stereo partly specified) | 7 µM | > 50 µM |  |  |
| C[C@@]12COC[C@]13C=C(Br)C(C2)[C@]1(CO1)C3=O | 12.7 µM | > 50 µM |  |  |
| CO[C@]12C=C(Br)C(CC1c1cccc(C)c1)[C@]1(CO1)C2=O (stereo partly specified) | 8 µM | > 50 µM |  |  |
| C#CCCCO/N=C1/C[C@@H](O)[C@@H](O)[C@@H]2[C@@H]3C(=O)N(CCC(=O)OCC)C(=O)[C@@H]3CC[C@@H]12 | > 100 µM | > 50 µM |  |  |
| c1ccc(C2NCCc3c2[nH]c2ccccc32)cc1 (stereo unspecified) | 30 µM | > 50 µM |  |  |
| O=C1[C@@]2(CO)C=C(Br)C(CC2c2ccccc2)[C@]12CO2 (stereo partly specified) | 6.6 µM | > 50 µM |  |  |
| CC[C@@H](c1ccccc1)N1CN2[C@H]3[C@H](O)[C@@H]4O[C@@H]4/C(=N\OC[C@@H](O)COCc4ccco4)[C@H]3CCN2C1=O | 2.5 µM | > 50 µM |  |  |
| C#CCCCO/N=C1/[C@H]2CCN3C(=O)N(c4ccccc4)CN3[C@H]2[C@H](O)[C@@H]2O[C@H]12 | 1.4 µM | > 50 µM |  |  |
| Cc1cc2c(nc1C)CCCN2C[C@H](C)O/N=C1\[C@H]2CCn3c(=O)n(-c4ccccc4)c(=O)n3[C@H]2[C@H](O)[C@@H]2O[C@H]12 | 1.5 µM | 39.3 µM |  |  |
| O=C1C2C=C(I)C(CC2c2ccccc2)[C@]12CO2 (stereo partly specified) | 9.1 µM | > 50 µM |  |  |
| O=C1[C@@]2(CO)C=C(I)C(CC2c2ccccc2)[C@]12CO2 (stereo partly specified) | 3.5 µM | 27.1 µM | 48.4% | 45.1% |
